Drawing on patent US20250171451A1, “NOVEL HETEROCYCLIC COMPOUND AND PHARMACEUTICAL COMPOSITION COMPRISING SAME” (Samjin Pharmaceutical Co., Ltd., priority 2022, published 2025), this text covers inhibition for 28 compounds.

Assay [1] addresses T1, recombinant GST-TEAD1 proteins (209 to 426 a.a.) (Homo sapiens, UniProt P28347).
T1 construct: recombinant GST-TEAD1 proteins (209 to 426 a.a.)
The assay can be described thus: Evaluation of palmitoylation of TEAD protein. Type of assay: biochemical. The conditions noted are these: 5 μM compound, 15 minutes preincubation, 3 μM alkyne palmitoyl-CoA 30 minutes, pH 6.4, vs DMSO control. The method, then: Each compound corresponding to a concentration of 5 μM was added to recombinant GST-TEAD1 proteins (209 to 426 a.a.) and cultured for 15 minutes. For an autopalmitoylation reaction of proteins after culturing, 3 μM alkyne palmitoyl-CoA (Cayman chemical) and 50 mM MES buffer (pH 6.4) were added and cultured for 30 minutes, after which 1% of sodium dodecyl sulfate (SDS) was added to stop the reaction. After that, biotinylation was performed through a CLICK (Click chemistry tools) reaction, and then a protein solution was concentrated to prepare a sample.
Analysis of the sample was performed using SDS-PAGE and streptavidin HRP (Thermo scientific). The resulting values were quantified using an Image J (NIH). For the intensity of the band obtained from Streptavidin blot, a palmitoylation inhibitory activity was analyzed based on the control group (DMSO). The normalization of each sample was performed using an anti-GST (91G1) (cell signaling) antibody.

The test system of assay [2] is TEAD response element (TRE) luciferase reporter in MCF-7 cell lines. The experiment in a line: TEAD response element (TRE) reporter assay. As to conditions: Homo sapiens, MCF7; 0.2 μM compound, 24 hours, MCF-7 TEAD reporter cells, relative to vehicle (1% DMSO). Type of assay: cell-based. On the procedure: MCF-7 cell lines injected with TEAD reporter genes expressing firefly luciferase upon activation of TEAD response element (TRE) were obtained from BPS bioscience (#60618). The TEAD reporter genes were injected to stable expression in the MCF-7 cell lines.
TEAD reporter genes expressing firefly luciferase upon activation of TEAD response element (TRE) were injected with TEAD reporter genes to ensure stable expression of the TEAD reporter genes. Here, the TEAD reporter genes expresses firefly luciferase upon activation of TEAD response element (TRE). The cells were cultured in a cell-only culture medium (BPS bioscience) to which 10 μg/mL insulin (Sigma) was added at 37° C. and 5% CO2.
In 24 hours after dispensing said cells into a 96-well plate, each of the compounds of the examples or a vehicle solvent (final 1% DMSO) was treated by being diluted with a serum-free culture medium so that the final concentration became 0.2 μM. In 24 hours after said treatment, a luciferase assay working solution (ONE-Step Luciferase assay reagent; BPS bioscience) containing a luciferase substrate was treated in each well at 100 μL, and then left in a shaker for 15 minutes to be well mixed. Then, a degree of luminescence generated by luciferase expressed according to TEAD activation was measured by a microplate reader (TECAN). A relative activity of luciferase […], and the results are shown in table 8 below.
(In general: In a reporter assay the amount or activity of a reporter protein is the signal.)

T1 sequence (P28347 209-426): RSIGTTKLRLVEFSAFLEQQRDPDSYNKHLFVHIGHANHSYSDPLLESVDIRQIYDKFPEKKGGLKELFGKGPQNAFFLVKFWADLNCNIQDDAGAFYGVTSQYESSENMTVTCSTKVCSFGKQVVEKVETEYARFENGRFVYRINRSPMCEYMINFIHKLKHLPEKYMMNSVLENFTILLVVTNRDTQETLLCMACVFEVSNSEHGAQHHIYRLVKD

With `C=CC(=O)Nc1ccc2c(c1)c(C)nn2Cc1ccc(C(F)(F)F)cc1` [Compound 33, N-(3-methyl-1-(4-(trifluoromethyl)benzyl)-1H-indazol-5-yl)acrylamide], the inhibition (as a rule, how much of the control response was suppressed) at 5 µM in assay [1] is 40 to 80%. In assay [2], this compound showed an inhibition at 0.2 µM greater than 50%.
For the compound `C=CC(=O)Nc1ccc2cnn(-c3ccc(C(F)(F)F)cc3)c2c1` [Compound 34, N-(1-(4-(trifluoromethyl)phenyl)-1H-indazol-6-yl)acrylamide], the inhibition at 5 µM in assay [1] fell in the range of 40 to 80%. In assay [2], this compound yielded an inhibition at 0.2 µM of 30 to 50%.
On the same counts, the results for `C=CC(=O)Nc1cnc2c(cnn2-c2ccc(C(F)(F)F)cc2)c1` [Compound 35, N-(1-(4-(trifluoromethyl)phenyl)-1H-pyrazolo[3,4-b]pyridin-5-yl)acrylamide] are 40 to 80% and greater than 50%.
As for `C=CC(=O)Nc1cnc2c(ccn2-c2ccc(C(F)(F)F)cc2)c1` [Compound 36, N-(1-(4-(trifluoromethyl)phenyl)-1H-pyrrolo[2,3-b]pyridin-5-yl)acrylamide], the inhibition at 5 µM in assay [1] was greater than 80%. Also, the inhibition at 0.2 µM in assay [2] was greater than 50%.
Regarding `C=CC(=O)Nc1cnc2c(c1)c(C)cn2-c1ccc(C2CCCCC2)cc1` [Compound 37, N-(1-(4-cyclohexylphenyl)-3-methyl-1H-pyrrolo[2,3-b]pyridin-5-yl)acrylamide], the inhibition at 5 µM in assay [1] is greater than 80%. In assay [2], the inhibition at 0.2 µM is less than 30%.
As to `C=CC(=O)Nc1ccc2c(Br)nn(Cc3ccc(C(F)(F)F)cc3)c2c1` [Compound 38, N-(3-bromo-1-(4-(trifluoromethyl)benzyl)-1H-indazol-6-yl)acrylamide], the inhibition at 5 µM in assay [1] was greater than 80%. For the same compound, in assay [2], the inhibition at 0.2 µM lay in the range of 30 to 50%.
Turning to `C=CC(=O)Nc1ccc2c(c1)CCN2c1ccc(C(F)(F)F)cc1` [Compound 39, N-(1-(4-(trifluoromethyl)phenyl)indolin-5-yl)acrylamide], in assay [1], the inhibition at 5 µM was in the range of 40 to 80%. Besides, the inhibition at 0.2 µM in assay [2] lay within 30 to 50%.
On the same counts, the results for `C=CC(=O)Nc1cnc2c(n1)c(C)cn2-c1ccc(C(F)(F)F)cc1` [Compound 41, N-(7-methyl-5-(4-(trifluoromethyl)phenyl)-5H-pyrrolo[2,3-b]pyrazin-2-yl)acrylamide] are 40 to 80% and greater than 50%.
`C=CC(=O)Nc1cnc2c(c1)c(C)cn2Cc1ccc(C(C)(C)C)cc1` [Compound 44, N-(1-(4-(tert-butyl)benzyl)-3-methyl-1H-pyrrolo[2,3-b]pyridin-5-yl)acrylamide]: the inhibition at 5 µM in assay [1] was in the range of 40 to 80%. In assay [2], this compound displayed an inhibition at 0.2 µM of less than 30%.
Take `C=CC(=O)Nc1cnc2c(c1)c(C)cn2Cc1ccc(OC(F)(F)F)cc1` [Compound 45, N-(3-methyl-1-(4-(trifluoromethoxy)benzyl)-1H-pyrrolo[2,3-b]pyridin-5-yl)acrylamide]: the inhibition at 5 µM in assay [1] is 40 to 80%. The same compound displayed an inhibition at 0.2 µM in assay [2] greater than 50%.
For `C=CC(=O)Nc1cnc2c(ccn2-c2ccc(C(F)(F)F)cc2)n1` [Compound 46, N-(5-(4-(trifluoromethyl)phenyl)-5H-pyrrolo[2,3-b]pyrazin-2-yl)acrylamide], the inhibition at 5 µM in assay [1] is 40 to 80%. The inhibition at 0.2 µM in assay [2] is less than 30%.
On the same counts, the results for `C=CC(=O)Nc1cnc2c(c1)c(C)cn2-c1ccc(C(C)C)cc1` [Compound 47, N-(1-(4-isopropylphenyl)-3-methyl-1H-pyrrolo[2,3-b]pyridin-5-yl)acrylamide] are greater than 80% and 30 to 50%.
Take `C=CC(=O)Nc1cnc2c(c1)c(C)nn2CCC(C)C` [Compound 48, N-(1-isopentyl-3-methyl-1H-pyrazolo[3,4-b]pyridin-5-yl)acrylamide]: the inhibition at 5 µM in assay [1] was 40 to 80%. The compound further had an inhibition at 0.2 µM in assay [2] greater than 50%.
On the same counts, the results for `C=CC(=O)Nc1cnc2c(c1)c(C)nn2Cc1ccc(OC(F)(F)F)cc1` [Compound 49, N-(3-methyl-1-(4-(trifluoromethoxy)benzyl)-1H-pyrazolo[3,4-b]pyridin-5-yl)acrylamide] are 40 to 80% and less than 30%.
On the same counts, the results for `C=CC(=O)Nc1cnc2c(c1)c(C)nn2-c1ccc(C(C)C)cc1` [Compound 51, N-(1-(4-isopropylphenyl)-3-methyl-1H-pyrazolo[3,4-b]pyridin-5-yl)acrylamide] are greater than 80% and less than 30%.
As for `C=CC(=O)Nc1cnc2c(c1)c(C)nn2-c1cccc(C(F)(F)F)c1` [Compound 52, N-(3-methyl-1-(3-(trifluoromethyl)phenyl)-1H-pyrazolo[3,4-b]pyridin-5-yl)acrylamide], in assay [1], the inhibition at 5 µM is 40 to 80%. This compound also yielded an inhibition at 0.2 µM in assay [2] greater than 50%.
On the same counts, the results for `C=CC(=O)Nc1cnc2c(c1)c(C)cn2Cc1ccc(C(F)(F)F)c(OC)c1` [Compound 53, N-(1-(3-methoxy-4-(trifluoromethyl)benzyl)-3-methyl-1H-pyrrolo[2,3-b]pyridin-5-yl)acrylamide] are less than 40% and greater than 50%.
On the same counts, the results for `C=CC(=O)Nc1cnc2c(c1)c(C)cn2Cc1cccc(C(F)(F)F)c1` [Compound 55, N-(3-methyl-1-(3-(trifluoromethyl)benzyl)-1H-pyrrolo[2,3-b]pyridin-5-yl)acrylamide] are 40 to 80% and greater than 50%.
With `C=CC(=O)Nc1cnc2c(c1)c(C)nn2Cc1cccc(C(F)(F)F)c1` [Compound 56, N-(3-methyl-1-(3-(trifluoromethyl)benzyl)-1H-pyrazolo[3,4-b]pyridin-5-yl)acrylamide], in assay [1], the inhibition at 5 µM was less than 40%. Besides, in assay [2], the inhibition at 0.2 µM was greater than 50%.
With `C=CC(=O)Nc1cnc2c(c1)c(C)cn2C1CCCCC1` [Compound 57, N-(1-cyclohexyl-3-methyl-1H-pyrrolo[2,3-b]pyridin-5-yl)acrylamide], the inhibition at 5 µM in assay [1] is 40 to 80%. In addition, the inhibition at 0.2 µM in assay [2] was less than 30%.
As for `C=CC(=O)Nc1cnc2c(c1)c(C)cn2-c1ccc(OC(F)(F)F)cc1` [Compound 58, N-(3-methyl-1-(4-(trifluoromethoxy)phenyl)-1H-pyrrolo[2,3-b]pyridin-5-yl)acrylamide], in assay [1], the inhibition at 5 µM was greater than 80%. In assay [2], this compound came in with an inhibition at 0.2 µM of less than 30%.
On the same counts, the results for `C=CC(=O)Nc1cnc2c(c1)c(C)cn2-c1ccc(C(F)(F)F)c(OC)c1` [Compound 59, N-(1-(3-methoxy-4-(trifluoromethyl)phenyl)-3-methyl-1H-pyrrolo[2,3-b]pyridin-5-yl)acrylamide] are greater than 80% and 30 to 50%.
In the case of `C=CC(=O)Nc1cnc2c(c1)c(C)nn2Cc1ccc(C(C)(C)C)cc1` [Compound 60, N-(1-(4-(tert-butyl)benzyl)-3-methyl-1H-pyrazolo[3,4-b]pyridin-5-yl)acrylamide], in assay [1], the inhibition at 5 µM was in the range of 40 to 80%. This compound gave an inhibition at 0.2 µM in assay [2] of less than 30%.
In the case of `C=CC(=O)Nc1cnc2c(c1)c(C)nn2Cc1ccc(C(F)(F)F)c(OC)c1` [Compound 61, N-(1-(3-methoxy-4-(trifluoromethyl)benzyl)-3-methyl-1H-pyrazolo[3,4-b]pyridin-5-yl)acrylamide], the inhibition at 5 µM in assay [1] was less than 40%. The inhibition at 0.2 µM in assay [2] was greater than 50%.
Take `C=CC(=O)Nc1cnc2c(c1)c(C)nn2Cc1ccc(C(F)(F)F)s1` [Compound 62, N-(3-methyl-1-((5-(trifluoromethyl)thiophen-2-yl)methyl)-1H-pyrazolo[3,4-b]pyridin-5-yl)acrylamide]: the inhibition at 5 µM in assay [1] fell in the range of 40 to 80%. The same compound gave an inhibition at 0.2 µM in assay [2] of 30 to 50%.
On to `C=CC(=O)Nc1cnc2c(c1)c(C)cn2Cc1ccc(C(F)(F)F)s1` [Compound 63, N-(3-methyl-1-((5-(trifluoromethyl)thiophen-2-yl)methyl)-1H-pyrrolo[2,3-b]pyridin-5-yl)acrylamide], for which the inhibition at 5 µM in assay [1] was in the range of 40 to 80%. Moreover, in assay [2], the inhibition at 0.2 µM fell in the range of 30 to 50%.
Turning to `C=CC(=O)Nc1cnc2c(c1)c(C)nn2-c1ccc(C(F)(F)F)c(OC)c1` [Compound 64, N-(1-(3-methoxy-4-(trifluoromethyl)phenyl)-3-methyl-1H-pyrazolo[3,4-b]pyridin-5-yl)acrylamide], the inhibition at 5 µM in assay [1] is 40 to 80%. The same compound returned an inhibition at 0.2 µM in assay [2] greater than 50%.
In the case of `C=CC(=O)Nc1cnc2c(c1)c(C)nn2Cc1ccc(C(F)F)cc1` [Compound 67, N-(1-(4-(difluoromethyl)benzyl)-3-methyl-1H-pyrazolo[3,4-b]pyridin-5-yl)acrylamide], the inhibition at 5 µM in assay [1] is less than 40%. This compound returned an inhibition at 0.2 µM in assay [2] of 30 to 50%.
